Here are results for 2 sequences from patent publication US7572454B2, “T helper cell epitopes” (priority 1999, dated 2009).

Assay [1] has as its system PBMCs from dogs immunised with CDV. Kind of assay: T-cell proliferation after in vitro stimulation of PBMC with peptide pools, tested with autologous APCs and single peptides. The assay is classed as cell-based, dog. Here is the method:
An alternate strategy was used to increase the precursor frequency of specific T cells recognising the CDV peptides. Fresh PBMCs obtained from these hyperimmunised dogs were subjected to stimulation in vitro with pools of all 94 peptides for 30 minutes at 37° C. The cells were then washed to remove any excess peptides and cultured for 7 days. This population of T cells was then tested with autologous APCs with every single peptide as the antigen.
To confirm this observation, the same four dogs were bled again, five weeks after receiving the dose of killed virus. The PBMCs were stimulated in vitro with pools of either all 94 peptides or peptides 21-40 (because most of the activity was in this region) and after 7 days of culture the stimulated T cells were tested against individual peptides. Significant stimulatory indices were obtained with all peptides, confirming the above results. Four more dogs which received only one dose of 3 in 1 vaccine were tested using the in vitro stimulation method and all four dogs responded to the majority of peptides shown in Table 2.
Once again the same peptides and one additional peptide P32 were tested on cells from additional dogs.

Assay [2] concerns PBMCs obtained from dogs immunised with peptide vaccines. Description: In vitro T cell proliferation assay without enrichment, PBMCs of peptide-vaccinated dogs against Th-epitope and truncated versions. The conditions noted are these: dogs of Example 2 immunised with the respective Th-epitope-LHRH; FIGS. 2-4. The class given is cell-based, dog. Here is the method: The assay was carried out without the enrichment of PBMCs. PBMCs obtained from Ficoll gradient purification were directly tested against the respective Th-epitope and its truncated versions. […] Truncated versions of the respective Th-epitopes were also tested to more closely define the T-cell activity within the sequences. […] This implies that the T-cell activity is towards the N-terminus or middle of the 17-residue peptide.

The subject of assay [3] is LHRH. Description: Trial K9-8: antibody response to LHRH by ELISA. The assay is classed as in vivo, dog. The conditions noted are these: Trial K9-8; T-cell-LHRH constructs named by their T-cell epitope. Here is the method: A total of 35 dogs mixed sex were used in this trial. All had been previously vaccinated with a live CDV vaccine but had not been vaccinated against LHRH.
The T-Helper epitopes were linked to a truncated form of LHRH, containing amino acids 2 to 10 of the native 10 amino acid sequence, as shown below:
All vaccines were formulated as for Example 2, ie each 1 mL dose of vaccine contained 40nmoles of peptide, 150 μg Iscomatrix™, and thiomersal as preservative.
Where dogs were vaccinated with a pool of peptides, the concentration of each peptide was adjusted to give equal concentrations and a total amount of 40 nmoles of LHRH epitope per 1 mL dose.
All dogs were vaccinated with a 1 mL dose, delivered in the scruff of the neck. Vaccinations were given at 0 and 4 weeks and venous blood samples were obtained at intervals during the trial.
Effective T-cell help was determined by measuring the antibody response to LHRH by ELISA. Biological effectiveness of the peptide based vaccine was determined by measuring the levels of progesterone in female dogs and testosterone in male dogs.
In general terms: ELISA stands for enzyme-linked immunosorbent assay.

Assay [4] has as its system LHRH. Kind of assay: Trial in BALB/c mice: antibody response to LHRH by ELISA. The conditions noted are these: BALB/c mice. The class given is in vivo. Here is the method: The canine vaccines with CDV-F derived Th-epitopes and LHRH used in Example 3 were also used to immunise BALB/c mice to investigate if the Th-epitopes would be functional in a different animal species.
All vaccines were formulated as for Example 3 except that they were diluted further so that 100 μl doses contained 2.7 nmoles of peptide and 10 μg of Iscomatrix™ and thiomersol as preservative.
Mice were vaccinated with 100 μl of the vaccine at the base of tail. Vaccinations were given at 0 and 4 weeks and animals bled at intervals after each vaccination from the retro-orbital plexus. Effective T-cell help was determined by measuring the antibody response to LHRH by ELISA.

The mark [5] stands for this setting: Table 1, Beagle Foxhound (Dog #18), hyperimmunised, PBMC stimulated with pool of all 94 peptides, 7 days culture.
The mark [6] stands for this setting: Table 1, Beagle Foxhound (Dog #19).
Setting [7] is: Table 1, Beagle Foxhound (Dog #20).
[8] abbreviates: Table 1, Beagle Foxhound (Dog #21).
The mark [9] stands for this setting: Table 2, Beagle Foxhound (Dog #72), one dose of 3 in 1 vaccine.
Setting [10] is: Table 2, Beagle Foxhound (Dog #73), one dose of 3 in 1 vaccine.

With TAAQITAGIALHQSNLN [Peptide P35], the Stimulatory index in assay [1] (setting [5]) is reported as 3.1; in assay [1] (setting [6]), 57; in assay [1] (setting [7]), 3.3; in assay [1] (setting [8]), 22; in assay [1] (setting [9]), 1.7; in assay [1] (setting [10]), 6.8. For the same sequence, the Stimulatory index in assay [1] (Table 3, Kelpie Foxhound (Dog #125)) is on record as 3.8; in assay [1] (Table 3, Kelpie Foxhound (Dog #126)), 10; in assay [1] (Table 5, Border Collie), 2; in assay [1] (Table 5, Fox Terrier), 2.2; in assay [1] (Table 5, Grey hound), less than 2; in assay [1] (Table 5, Kelpie Pointer) it was 2. For the same sequence, the Stimulatory index is less than 2 in assay [1] (Table 5, Poodle Shitzu) and less than 2 in assay [1] (Table 5, Terrier Cross). For the same sequence, the “Stimulation indices to Th-epitope and its truncated versions” value in assay [2] is recorded as “the other three dogs responded as well to the 12 residue peptide as to the full length 17 residue one”. In the assay with LHRH [3], the “antibody responses to LHRH” value was “Strong antibody responses”. Moreover, in the assay on LHRH [4], the “antibody titres to LHRH” value is listed as “low antibody titres”.

As for “KLIPNASLIENCTKAEL (canine distemper virus; synthetic peptide from canine distemper virus fusion protein (CDV-F) designated peptide P25)”, the Stimulatory index turned out to be 3.2 in assay [1] (setting [5]); 11.9 in assay [1] (setting [6]); 4.5 in assay [1] (setting [7]); 17 in assay [1] (setting [8]); 1.5 in assay [1] (Table 2, Beagle Foxhound (Dog #70), one dose of 3 in 1 vaccine); 2.9 in assay [1] (Table 2, Beagle Foxhound (Dog #71), one dose of 3 in 1 vaccine). Also, the Stimulatory index in assay [1] (setting [9]) is reported as 2; in assay [1] (setting [10]), 12; in assay [1] (Table 5, Border Collie) it was less than 2; in assay [1] (Table 5, Fox Terrier), 2.6; in assay [1] (Table 5, Grey hound) it was less than 2; in assay [1] (Table 5, Kelpie Pointer), 2.6. Also, the Stimulatory index in assay [1] (Table 5, Poodle Shitzu) is recorded as less than 2; in assay [1] (Table 5, Terrier Cross), less than 2. For the same sequence, in assay [2], the “Stimulation indices to Th-epitope and its truncated versions” value was “the full sequence of 17 residues was better than the shorter peptides of 15 and 12 residues”. Further, in the assay on LHRH [3], the “antibody responses to LHRH” value was “Strong antibody responses”.
